Usually Ki stands for the equilibrium dissociation constant of an inhibitor or competing ligand from its target.

These results are taken from patent US10285989B2, “Pyrimidinone amide compounds as PDE2 inhibitors” (Merck Sharp & Dohme Corp., priority 2015, dated 2019).

Rhesus PDE2A3, sequence (B3VTJ2 1-941): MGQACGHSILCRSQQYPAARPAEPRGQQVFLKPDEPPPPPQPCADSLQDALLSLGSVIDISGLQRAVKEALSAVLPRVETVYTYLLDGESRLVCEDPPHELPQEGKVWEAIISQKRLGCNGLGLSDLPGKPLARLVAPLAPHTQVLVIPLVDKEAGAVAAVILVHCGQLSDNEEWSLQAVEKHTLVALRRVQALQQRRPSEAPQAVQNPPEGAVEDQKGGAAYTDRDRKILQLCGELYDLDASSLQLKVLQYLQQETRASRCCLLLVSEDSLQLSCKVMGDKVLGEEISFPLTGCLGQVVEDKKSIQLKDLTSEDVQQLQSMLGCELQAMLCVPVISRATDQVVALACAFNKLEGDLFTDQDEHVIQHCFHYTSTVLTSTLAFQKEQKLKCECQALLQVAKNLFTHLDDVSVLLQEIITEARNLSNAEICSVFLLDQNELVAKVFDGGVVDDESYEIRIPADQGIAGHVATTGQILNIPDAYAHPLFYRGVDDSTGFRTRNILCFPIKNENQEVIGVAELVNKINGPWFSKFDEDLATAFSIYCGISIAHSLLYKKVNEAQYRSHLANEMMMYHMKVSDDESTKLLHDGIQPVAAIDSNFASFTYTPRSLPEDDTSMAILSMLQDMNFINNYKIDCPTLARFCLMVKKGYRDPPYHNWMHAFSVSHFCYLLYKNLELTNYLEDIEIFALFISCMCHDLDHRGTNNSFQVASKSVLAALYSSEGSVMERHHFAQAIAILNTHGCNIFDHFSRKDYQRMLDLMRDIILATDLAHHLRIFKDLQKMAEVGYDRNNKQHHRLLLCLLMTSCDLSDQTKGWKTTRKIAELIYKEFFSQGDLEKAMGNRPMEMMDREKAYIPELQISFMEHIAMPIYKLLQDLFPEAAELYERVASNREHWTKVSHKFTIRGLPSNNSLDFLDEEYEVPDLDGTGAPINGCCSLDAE

For one test, the target named is Rhesus PDE2A3 (Macaca mulatta, UniProt B3VTJ2). Nature of the test: PDE2 fluorescence polarization (IMAP FP) inhibition assay, rhesus PDE2A3. The format is biochemical, rhesus macaque. The settings on record: @ 1 μM; Lab A; read-out: Rhesus PDE2 % inhibition at a given concentration - Lab A. The procedure:
A Labcyte Echo 555 (Labcyte, Sunnyvale, Calif.) is used to dispense 200 nL from each well of the titration plate to the 384 well assay plate. Ten microliters of a solution of enzyme (1/2000 final dilution from aliquots; sufficient to produce 20% substrate conversion) was added to the assay plate. Next 10 uL of a separate solution of the substrate FAM-labeled cAMP (50 nM final concentration product # R^7506 from Molecular Devices) and the activator cGMP (1 uM final concentration), prepared in the assay buffer (10 mM Tris HCl, pH 7.2, 10 mM MgCl2, 0.05% NaN3 0.01% Tween-20, and 1 mM DTT) was added to the assay plate and shaken to mix. The reaction is allowed to proceed at room temperature for 60 minutes. A binding solution is then made from the kit components, comprised of 80% Solution A, 20% Solution B and binding reagent at a volume of 1/600 the total binding solution. The enzymatic reaction is stopped by addition of 60 μL of the binding solution to each well of the assay plates and the plates are sealed and shaken for 30 seconds. The plate was incubated at room temperature for at least one hour prior to determining the fluorescence polarization (FP). The parallel and perpendicular fluorescence of each well of the plate was measured using a Tecan Genios Pro plate reader (Tecan, Switzerland) or Perkin Elmer EnVision™ plate reader (Waltham, Mass.). Fluorescence polarization (mP) was calculated from the parallel (S) and perpendicular (P) fluorescence of each sample well and the analogous values for the median control well, containing only substrate (So and Po), using the following equation: Polarization (mP)=1000*(S/So−P/Po)/(S/So+P/Po).
Dose-inhibition profiles for each compound were characterized by fitting the mP data to a four-parameter equation given below.
An apparent (KM) for FAM-labeled cAMP of ˜10 uM was used.
As for `Cc1cnn(-c2nc(C(=O)N[C@H](C)c3ccc(C(F)(F)F)cc3)cc(=O)[nH]2)c1` [Example 7, (R)-2-(4-methyl-1H-pyrazol-1-yl)-6-oxo-N-(1-(4-(trifluoromethyl)phenyl)ethyl)-1,6-dihydropyrimidine-4-carboxamide], the inhibition at 1 µM stood at 25%.

Staying with this test, now noted: Lab A; read-out: Rhesus PDE2 Ki (nM) - Lab A.
Turning to `CC(NC(=O)c1cc(=O)[nH]c(OCC2(C)COC2)n1)c1ccc(C(F)(F)F)cc1` (stereo not shown) [Example 188, 2-[(3-methyloxetan-3-yl)methoxy]-6-oxo-N-{1-[4-(trifluoromethyl)phenyl]ethyl}-1,6-dihydropyrimidine-4-carboxamide], the Ki is 12600 nM.
`COCCOc1nc(C(=O)NC(C)c2ccc(C(F)(F)F)cc2)cc(=O)[nH]1` (stereo not shown) [Example 21, 2-(2-Methoxyethoxy)-6-oxo-N-(1-(4-(trifluoromethyl)phenyl)ethyl)-1,6-dihydropyrimidine-4-carboxamide]: the Ki is 657 nM.

For another test, the target named is human PDE2A1 (Homo sapiens (Human), UniProt O00408). The experiment in a line: PDE2 IMAP FP inhibition assay, human PDE2A1 (selectivity panel format). The format is biochemical. The settings on record: @ 3 μM; Lab B; read-out: Human PDE2 % inhibition at a given concentration - Lab B. The procedure: Selectivity for PDE2, as compared to other PDE families, was assessed using the IMAP® technology. Human PDE10A2 enzyme was prepared from cytosolic fractions of transiently transfected HEK cells.
human PDE2A1, sequence (O00408 other isoform, or with tags, fused parts or gaps): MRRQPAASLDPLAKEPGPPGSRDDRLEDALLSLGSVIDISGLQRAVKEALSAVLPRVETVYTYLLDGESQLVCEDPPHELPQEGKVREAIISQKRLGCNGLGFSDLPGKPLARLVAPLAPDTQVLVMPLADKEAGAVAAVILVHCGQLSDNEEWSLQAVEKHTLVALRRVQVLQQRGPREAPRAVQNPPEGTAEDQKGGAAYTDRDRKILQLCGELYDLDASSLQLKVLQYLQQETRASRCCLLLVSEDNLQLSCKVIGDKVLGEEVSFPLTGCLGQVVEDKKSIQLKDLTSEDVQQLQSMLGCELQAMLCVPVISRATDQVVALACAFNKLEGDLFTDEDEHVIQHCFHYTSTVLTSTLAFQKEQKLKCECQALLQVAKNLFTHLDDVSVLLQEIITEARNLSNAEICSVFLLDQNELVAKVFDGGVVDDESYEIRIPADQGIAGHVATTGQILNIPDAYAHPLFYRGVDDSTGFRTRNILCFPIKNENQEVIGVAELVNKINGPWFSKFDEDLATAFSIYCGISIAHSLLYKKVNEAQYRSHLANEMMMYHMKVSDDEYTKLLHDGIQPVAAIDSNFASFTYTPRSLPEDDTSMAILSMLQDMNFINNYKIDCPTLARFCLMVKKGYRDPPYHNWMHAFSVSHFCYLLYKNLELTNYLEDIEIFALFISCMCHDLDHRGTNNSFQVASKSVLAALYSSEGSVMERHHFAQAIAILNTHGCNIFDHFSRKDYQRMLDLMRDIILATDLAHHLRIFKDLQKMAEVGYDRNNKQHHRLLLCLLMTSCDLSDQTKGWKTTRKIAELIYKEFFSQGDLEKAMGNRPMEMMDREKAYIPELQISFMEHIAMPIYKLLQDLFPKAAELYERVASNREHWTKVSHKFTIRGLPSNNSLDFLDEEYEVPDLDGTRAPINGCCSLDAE
A Labcyte POD 810 (Labcyte, Sunnyvale, Calif.) was used to dispense 200 nL from each well of the titration plate to make eleven copies of the assay plate for each titration, one copy for each PDE enzyme. A solution of each enzyme (dilution from aliquots, sufficient to produce 20% substrate conversion) and a separate solution of FAM-labeled cAMP or FAM-labeled cGMP from Molecular Devices (Sunnyvale, Calif., product # R7506 or cGMP#R7508), at a final concentration of 50 nM were made in the assay buffer (10 mM Tris HCl, pH 7.2, 10 mM MgCl2, 0.05% NaN3 0.01% Tween-20, and 1 mM DTT). Note that the substrate for PDE2 is 50 nM FAM cAMP containing 1000 nM of cGMP. The enzyme and the substrate were then added to the assay plates in two consecutive additions of 10 μL and then shaken to mix. The reaction was allowed to proceed at room temperature for 60 minutes. A binding solution was then made from the kit components, comprised of 80% Solution A, 20% Solution B and binding reagent at a volume of 1/600 the total binding solution. The enzymatic reaction was stopped by addition of 60 μL of the binding solution to each well of the assay plate. The plates were sealed and shaken for 10 seconds. The plates were incubated at room temperature for one hour, then the parallel and perpendicular fluorescence was measured using a Tecan Genios Pro plate reader (Tecan, Switzerland). […] The intrinsic PDE2 inhibitory activity of a compound which may be used in accordance with the present invention may be determined by these assays. […]
With `CC(NC(=O)c1cc(=O)[nH]c(N(C)C)n1)c1ccc(C(C)(C)C(F)(F)F)cc1` (single isomer, unassigned) [Example 121, (S)- or (R)-2-(dimethylamino)-6-oxo-N-{1-[4-(2,2,2-trifluoro-1,1-dimethylethyl)phenyl]ethyl}-1,6-dihydropyrimidine-4-carboxamide], the inhibition at 3 µM worked out at 15%.

Staying with this test, now noted: Lab B; read-out: Human PDE2 Ki (nM) - Lab B.
Take `CCC(C)(NC(=O)c1cc(=O)[nH]c(N(C)C)n1)c1ccc(C(F)(F)F)cc1F` (single isomer, unassigned) [Example 129, (S)- or (R)-2-(dimethylamino)-N-{1-[2-fluoro-4-(trifluoromethyl)phenyl]-1-methylpropyl}-6-oxo-1,6-dihydro-pyrimidine-4-carboxamide]: the Ki was 5.5 nM.
Regarding `CN(C)c1nc(C(=O)NC2(c3ccc(C(F)(F)F)cc3)COC2)cc(=O)[nH]1` [Example 212, 2-(dimethylamino)-6-oxo-N-{3-[4-(trifluoromethyl)phenyl]oxetan-3-yl}-1,6-dihydropyrimidine-4-carboxamide], the Ki stood at 9.2 nM.
Take `CN(C)c1nc(C(=O)NC(c2ccc(C3(C)CC3)c(F)c2)C(C)(C)C)cc(=O)[nH]1` (single isomer, unassigned) [Example 123, (S)- or (R)-2-(dimethylamino)-N-{1-[3-fluoro-4-(1-methylcyclopropyl)phenyl]-2,2-dimethylpropyl}-6-oxo-1,6-dihydropyrimidine-4-carboxamide]: the Ki turned out to be 167 nM.
With `C[C@@H](NC(=O)c1cc(=O)[nH]c(N(C)C)n1)c1ccc(C(C)(F)F)cc1` [Example 74, N-{(1R)-1-[4-(1,1-difluoroethyl)phenyl]ethyl}-2-(dimelhylamino)-6-oxo-1,6-dihydropyrimidine-4-carboxamide], the Ki is 3.9 nM.
On the same count and under the same terms, the result for `CN(C)c1nc(C(=O)NC(c2ccc(S(F)(F)(F)(F)F)cc2F)C(C)(C)C)cc(=O)[nH]1` (single isomer, unassigned) [Example 127, (S)- or (R)-2-(dimethylamino)-N-{1-[2-fluoro-4-(pentafluoro-λ^6-sulfanyl)phenyl]-2,2-dimethylpropyl}-6-oxo-1,6-dihydropyrimidine-4-carboxamide] reads 527 nM; that for `CN(C)c1nc(C(=O)NC2(c3ccc(C(F)F)c(F)c3)CC2)cc(=O)[nH]1` [Example 70, N-{1-[4-(difluoromethyl)-3-fluorophenyl]cyclopropyl}-2-(dimethylamino)-6-oxo-1,6-dihydropyrimidine-4-carboxamide], 9.7 nM; that for `CN(C)c1nc(C(=O)NC(C#N)c2ccc(C(F)(F)F)cc2)cc(=O)[nH]1` (stereo not shown) [Example 199, N-{cyano[4-(trifluoromethyl)phenyl]methyl}-2-(dimethylamino)-6-oxo-1,6-dihydropyrimidine-4-carboxamide], 27 nM.
Consider `CN(C)c1nc(C(=O)NC2(c3ccc(C(F)(F)F)cc3F)CC2)cc(=O)[nH]1` [Example 49, 2-(dimethylamino)-N-{1-[2-fluoro-4-(trifluoromethyl)phenyl]cyclopropyl}-6-oxo-1,6-dihydropyrimidine-4-carboxamide], for which the Ki was determined as 2.7 nM.
Regarding `COCC1CCN(c2nc(C(=O)N[C@@H](c3ccc(C(F)(F)F)cc3)C(C)(C)C)cc(=O)[nH]2)C1` (single isomer, unassigned) [Example 177, (S)- or (R)-N-{(1R)-2,2-dimethyl-1-[4-(trifluoromethyl)phenyl]propyl}-2-[3-(methoxymethyl)pyrrolidin-1-yl]-6-oxo-1,6-dihydropyrimidine-4-carboxamide], the Ki stood at 0.46 nM.
The same measure, in the same setting: next, `C[C@@H](NC(=O)c1cc(=O)[nH]c(N(C)C)n1)c1ccc(S(F)(F)(F)(F)F)cc1F` [Example 116, (R)-2-(dimethylamino)-N-(1-(4-(pentafluorothio)-2-fluorophenyl)ethyl)-6-oxo-1,6-dihydropyrimidine-4-carboxamide]: 749 nM; `CN(C)c1nc(C(=O)N[C@@H](c2ccc(S(F)(F)(F)(F)F)cc2)C(C)(C)O)cc(=O)[nH]1` [Example 211, 2-(dimethylamino)-N-{(1S)-2-hydroxy-2-methyl-1-[4-(pentafluoro-λ^6-sulfanyl)phenyl]propyl}-6-oxo-1,6-dihydropyrimidine-4-carboxamide]: 0.073 nM.
The same measure, in the same setting: the result for `C[C@H]1C[C@]1(NC(=O)c1cc(=O)[nH]c(N(C)C)n1)c1ccc(C(F)(F)F)cc1` (single isomer, unassigned; enantiomer a) [Example 174, 2-(dimethylamino)-N-{2-methyl-1-[4-(trifluoromethyl)phenyl]cyclopropyl}-6-oxo-1,6-dihydropyrimidine-4-carboxamide (cis, enantiomer A)] reads 2.7 nM; that for `CN(C)c1nc(C(=O)NC(C)(C)c2ccc(OC(F)(F)F)cc2F)cc(=O)[nH]1` [Example 81, 2-(dimethylamino)-N-{1-[2-fluoro-4-(trifluoromethoxy)phenyl]-1-methylethyl}-6-oxo-1,6-dihydropyrimidine-4-carboxamide], 21 nM; that for `CC(C)[C@@H](NC(=O)c1cc(=O)[nH]c(N(C)C)n1)c1ccc(C(F)F)c(F)c1` [Example 65, N-{(1R)-1-[4-(difluoromethyl)-3-fluorophenyl]-2-methylpropyl}-2-(dimethylamino)-6-oxo-1,6-dihydropyrimidine-4-carboxamide], 2.2 nM.
With `CN(C)c1nc(C(=O)N[C@@](C)(CO)c2ccc(C(F)(F)F)cc2Cl)cc(=O)[nH]1` [Example 209, N-{(1R)-1-[2-chloro-4-(trifluoromethyl)phenyl]-2-hydroxy-1-methylethyl}-2-(dimethylamino)-6-oxo-1,6-dihydropyrimidine-4-carboxamide], the Ki is 3.9 nM.
Take `CC(C)[C@@H](NC(=O)c1cc(=O)[nH]c(N(C)C)n1)c1ccc(C(C)(F)F)cc1` [Example 75, N-{(1R)-1-[4-(1,1-difluoroethyl)phenyl]-2-methylpropyl}-2-(dimethylamino)-6-oxo-1,6-dihydropyrimidine-4-carboxamide]: the Ki stood at 0.39 nM.
As to `CN(C)c1nc(C(=O)NC(CC#N)c2ccc(C(F)(F)F)cc2)cc(=O)[nH]1` (stereo not shown) [Example 203, N-{2-cyano-1-[4-(trifluoromethyl)phenyl]ethyl}-2-(dimethylamino)-6-oxo-1,6-dihydropyrimidine-4-carboxamide], the Ki turned out to be 22 nM.
Same read-out and setting: the result for `C[C@H]1C[C@]1(NC(=O)c1cc(=O)[nH]c(N(C)C)n1)c1ccc(C(F)(F)F)cc1` (single isomer, unassigned; enantiomer b) [Example 175, 2-(dimethylamino)-N-{2-methyl-1-[4-(trifluoromethyl)phenyl]cyclopropyl}-6-oxo-1,6-dihydropyrimidine-4-carboxamide (cis, enantiomer B)] reads 0.92 nM.
